Patent publication EP0114908A1, “Finely pulverized 2,4-diamino-6-(2,5-dichlorophenyl)-1,3,5-triazine and pharmaceutically acceptable acid addition salts thereof” (NIPPON SHINYAKU COMPANY, LIMITED, priority 1983, dated 1984)
Where “and” joins values, the source holds several entries; their conditions need not be identical. Equal entries are not always repeated. Where two headings read alike, the source gives them in different places.

How the values were obtained:
Format in all cases: in vivo
[1] = tested on: ulcer formation induced by stress; experiment: stress ulcer in rats, immobilization-water immersion method; conditions: for activity on ulcer formation induced by stress: orally; for Inhibition Rate / ED50: stress ulcer; for ED50: per os
Text: Since 50 microns is a common particle diameter in pharmaceutical preparations, it was most surprising that such significant and important advantages accrued according to the present invention. Inhibition activity against stress ulcer in rats of the compound and pharmaceutically acceptable acid additio salts in the finely pulverized form of the present invention are set forth in Table 2.

male rats = experiment: toxicity on intraperitoneal injection (LD50); conditions: for LD50: injected intraperitoneally, male rats, limits given in brackets
Text: This decrease in toxicity is totally unexpected and represents a significant and important advance in the art.

[2] = body weight increase inhibition on chronic oral administration; conditions: rats; compared with a maleate salt having an average particle diameter of about 50 microns
Description: A further advantage results from body weight increase inhibition which is one of the main side effects of the compound and salts of the present invention. When 10 mg/kg or more per day of either the compound or maleate salt is chronically administered to rats orally, body weight increase is inhibited. This is a side effect of triazines of this type. […] However, when the compound or a pharmaceutically acceptable acid addition salt thereof according to the present invention having an average particle diameter of about 8 microns was administered, the appearance of the side effect was only transient and moderate and the recovery of body weight was far faster as compared to that occurring when the compound was administered having an average particle diameter of about 50 microns.
The average particle sizes were 8 microns for the compound according to the present invention as compared to the same compound having an average particle diameter of 50 microns.

Compound	activity on ulcer formation induced by stress ([1]; dosage of 5 mg/kg)	Inhibition Rate ([1]; 0.37 mg/kg per os, three values, 0.37 mg/kg)	Inhibition Rate ([1]; 3.72 mg/kg per os, three values, 3.72 mg/kg)	LD50 (male rats)	LD50 (male rats; listed as the same compound having an average particle diameter of about 50 microns)	ED50 ([1]; Rattus norvegicus, po, determined from the data of Table 2, read-out: ED50)	activity on ulcer formation induced by stress ([1]; dosage of 1 mg/kg)	Inhibition Rate ([1]; 0.3 mg/kg)	Inhibition Rate ([1]; 1.0 mg/kg)	Inhibition Rate ([1]; 3.0 mg/kg)	Inhibition Rate ([1]; 10 mg/kg)	Inhibition Rate ([1]; 30 mg/kg)	rats killed (male rats; intraperitoneal injection, dosages up to 3000 mg/kg)	ED50 ([1]; determined from the data of Table 2)	LD50 (male rats; listed as the maleate salt according to the present invention)	improvement in body weight side effect [2]
Nc1nc(N)nc(-c2cc(Cl)ccc2Cl)n1 [2,4-diamino-6-(2,5-dichlorophenyl)-1,3,5-triazine]	ineffective	37% and 46% and 29%	62% and 47% and 33%	495 mg/kg	1740 mg/kg	–	–	–	–	–	–	–	–	–	–	–
Nc1nc(N)nc(-c2cc(Cl)ccc2Cl)n1 [Substance (I), 2,4-diamino-6-(2,5-dichlorophenyl)-1,3,5-triazine]	–	–	–	–	–	1.22 mg/kg	effective	33%	45%	63%	70%	85%	no rats were killed	–	–	–
Nc1nc(N)nc(-c2cc(Cl)ccc2Cl)n1 [Substance (II), 2,4-diamino-6-(2,5-dichlorophenyl)-1,3,5-triazine]	–	–	–	–	–	–	–	35%	51%	70%	85%	–	–	0.90 mg/kg	835 mg/kg	particularly dramatic
